Laboratory results as given in ChEMBL document CHEMBL1151918 (Bioorg Med Chem, 2009).
Structures can show the parent of a compound that is named as a salt.

Legend:
Histamine H4 receptor [1] = molecular target: T1, Histamine H4 receptor (Homo sapiens, UniProt Q9H3N8); assay: Displacement of [3H]histamine from human histamine H4 receptor expressed in human SK-N-MC cells by liquid scintillation counting; assay type: cell-based
Histamine H3 receptor = Histamine H3 receptor (Homo sapiens, UniProt Q9Y5N1); assay: Displacement of [3H]N-alpha-methylhistamine from human histamine H3 receptor expressed in human SK-N-MC cells by liquid scintillation counting; assay type: cell-based
Histamine H4 receptor [2] = molecular target: T1, Histamine H4 receptor; assay: Antagonist activity at human histamine H4 receptor expressed in human SK-N-MC cells assessed as inhibition of 2-[3-(imidazol-4-yl)-propyl]-1-(4-iodo-benzyl)-isothiourea dihydrobromide-induced intrinsic activity; assay type: functional, cell-based; details: read-out: pA2 (converted)

T1 sequence (Q9H3N8 whole entry): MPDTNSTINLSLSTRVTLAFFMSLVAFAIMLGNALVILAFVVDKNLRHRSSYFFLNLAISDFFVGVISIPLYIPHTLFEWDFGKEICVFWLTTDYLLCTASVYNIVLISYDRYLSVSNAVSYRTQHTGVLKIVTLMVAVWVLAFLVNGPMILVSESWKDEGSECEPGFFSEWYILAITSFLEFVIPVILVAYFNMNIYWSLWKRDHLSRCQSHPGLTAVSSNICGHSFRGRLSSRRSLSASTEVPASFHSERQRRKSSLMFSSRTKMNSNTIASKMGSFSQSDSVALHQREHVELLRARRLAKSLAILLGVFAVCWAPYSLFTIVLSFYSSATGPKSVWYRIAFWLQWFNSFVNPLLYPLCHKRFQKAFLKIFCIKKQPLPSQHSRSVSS
Sequence of Histamine H3 receptor (Q9Y5N1 whole entry): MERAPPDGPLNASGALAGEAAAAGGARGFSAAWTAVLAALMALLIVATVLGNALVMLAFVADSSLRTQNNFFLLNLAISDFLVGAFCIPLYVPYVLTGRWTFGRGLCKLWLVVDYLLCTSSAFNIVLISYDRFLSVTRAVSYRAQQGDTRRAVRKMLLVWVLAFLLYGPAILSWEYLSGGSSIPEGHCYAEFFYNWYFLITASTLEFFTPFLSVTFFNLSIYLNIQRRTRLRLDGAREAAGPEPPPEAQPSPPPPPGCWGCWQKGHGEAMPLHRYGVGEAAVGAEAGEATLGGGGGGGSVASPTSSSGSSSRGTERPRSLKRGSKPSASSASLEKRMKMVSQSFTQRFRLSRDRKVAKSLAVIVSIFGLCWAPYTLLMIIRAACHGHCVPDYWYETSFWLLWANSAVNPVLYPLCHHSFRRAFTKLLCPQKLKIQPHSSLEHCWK

SMILES | Ki (Histamine H4 receptor [1]) [nM] | Ki (Histamine H3 receptor) [nM] | Kb (Histamine H4 receptor [2]) [nM]
N=C(NCc1ccc(Cl)c(Cl)c1)SCCCc1c[nH]cn1 | 1.58 | 6.31 | 
N=C(NCc1ccc(I)cc1)SCCCc1c[nH]cn1 | 10 | 3.16 | 
N=C(N)SCCCc1c[nH]cn1 | 12.6 | 2.51 | 
N=C(NC=C(c1ccccc1)c1ccccc1)NCCCc1c[nH]cn1 | 158 | 316 | 
NC(=NCc1ccc(Cl)cc1)SCCCc1cnc[nH]1 [CLOBENPROPIT] | 10 |  | 
NC(=NCCc1ccc(I)cc1)SCCCc1cnc[nH]1 [IODOPHENPROPIT HYDROBROMIDE] | 15.8 | 7.94 | 
N=C(N)SCCc1cnc[nH]1 [IMETIT] | 6.31 | 1.58 | 
N=C(NCc1ccccc1)SCCCc1c[nH]cn1 | 25.1 | 7.94 | 20
NC(=NCCCc1cnc[nH]1)NCc1ccccc1 | 25.1 | 79.4 | 
N=C(NCCC(c1ccccc1)c1ccccc1)SCCCc1c[nH]cn1 | 25.1 | 31.6 | 
Cc1ccc(CCNC(=N)SCCCc2c[nH]cn2)cc1 | 100 | 12.6 | 
N=C(NCc1cccc(Cl)c1)SCCCc1c[nH]cn1 | 15.8 | 7.94 | 
N=C(NCc1ccc(Br)cc1)SCCCc1c[nH]cn1 | 10 | 2.51 | 
N=C(NCCc1ccc(Cl)cc1)SCCCc1c[nH]cn1 | 31.6 | 10 | 
Cc1ccc(CNC(=N)SCCCc2c[nH]cn2)cc1 | 25.1 | 6.31 | 
N=C(NCCCc1ccccc1)SCCCc1c[nH]cn1 | 50.1 | 10 | 
N=C(NCCc1ccccc1)SCCCc1c[nH]cn1 | 63.1 | 20 | 
N=C(NCc1ccc(F)cc1)SCCCc1c[nH]cn1 | 25.1 | 5.01 | 
NC(=NCCCCc1ccccc1)SCCCc1cnc[nH]1 | 63.1 | 20 | 
COc1ccc(CCNC(=N)SCCCc2c[nH]cn2)cc1 | 158 | 20 | 
NC(=NCCc1ccc(Br)cc1)SCCCc1cnc[nH]1 | 39.8 | 7.94 | 
COc1ccc(CNC(=N)SCCCc2c[nH]cn2)cc1 | 12.6 | 7.94 | 
N=C(NCc1ccccc1Cl)SCCCc1c[nH]cn1 | 10 | 7.94 | 
